Read-outs that look alike come from different tables or passages of the source.

One experiment relates to ACh release from cortex. Description: Microdialysis, ACh release from cortex of conscious rat. It counts as in vivo.
Experiment [1] deals with ACh release from striatum. Type of experiment: in vivo, rat. As to conditions: for Peak ACh release as % increase over Baseline: striatum of conscious rat. The procedure: Surgery: For these studies, male Sprague-Dawley Rats (250-350 g) were anesthetized with sodium pentobarbital (54 mg/kg, ip) and placed on a Kopf sterotaxic apparatus. The skull was exposed and drilled through to the dura at a point 0.2 mm anterior and 3.0 mm lateral to the bregma. At these coordinates, a guide cannula was positioned at the outer edge of the dura through the drilled opening, lowered perpendicularly to a depth of 2.5 mm, and permanently secured with dental cement to bone screws. Following the surgery, rats were given ampicillin (40 mg/kg, ip) and individually housed in modified cages. A recovery period of approximately 3 to 7 days was allowed before the microdialysis procedure was undertaken.
Microdialysis: All of the equipment and instrumentation used to conduct in vivo microdialysis was obtained from Bioanalytical Systems, Inc. (BAS). The microdialysis procedure involved the insertion through the guide cannula of a thin, needle-like perfusable probe (CMA/12,3 mm×0.5 mm) to a depth of 3 mm in striatum beyond the end of the guide. The probe was connected beforehand with tubing to a microinjection pump (CMA-/100). Rats were collared, tethered, and, following probe insertion, were placed in a large, clear, plexiglass bowl with litter material and access to food and water. The probe was perfused at 2 μl/min with Ringer's buffer (NaCl 147 mM; KCl 3.0 mM; CaCl2 1.2 mM; MgCl2 1.0 mM) containing 5.5 mM glucose, 0.2 mM L-ascorbate, and 1 μM neostigmine bromide at pH 7.4). To achieve stable baseline readings, microdialysis was allowed to proceed for 90 minutes prior to the collection of fractions. Fractions (20 μl) were obtained at 10 minute intervals over a 3 hour period using a refrigerated collector (CMA170 or 200). Four to five baseline fractions were collected, following which the drug or combination of drugs to be tested was administered to the animal. Upon completion of the collection, each rat was autopsied to determine accuracy of probe placement.
Acetylcholine (ACh) analysis: The concentration of ACh in collected samples of microdialysate was determined using HPLC/electrochemical detection. Samples were auto-injected (Waters 712 Refrigerated Sample Processor) onto a polymeric analytical HPLC column (BAS, MF-6150) and eluted with 50 mM Na2HPO4, pH 8.5. To prevent bacterial growth, Kathon CG reagent (0.005%) (BAS) was included in the mobile phase. Eluent from the analytical column, containing separated ACh and choline, was then immediately passed through an immobilized enzyme reactor cartridge (BAS, MF-6151) coupled to the column outlet. The reactor contained both acetylcholinesterase and choline oxidase covalently bound to a polymeric backbone. […] Data acquisition was carried out using an IBM Model 70 computer equipped with a microchannel IEEE board. Integration and quantification of peaks were accomplished using “Maxima” chromatography software (Waters Corporation). Total run time per sample was 11 minutes at a flow rate of 1 ml/min. Retention times for acetylcholine and choline were 6.5 and 7.8 minutes, respectively. To monitor and correct for possible changes in detector sensitivity during chromatography, ACh standards were included at the beginning, middle and end of each sample queue.
Increases in ACh levels are consistent with presynaptic m2 receptor antagonism.

With `COc1ccc([S+]([O-])c2ccc(C(C#N)N3CCN(C4CCCCC4)CC3)cc2)cc1` (single isomer, unassigned) [Compound 169], the “Peak ACh release as % increase over Baseline” value in the experiment on ACh release from cortex (1 mg/kg i.p. (FIG. 1)) was determined as 75%; with ACh release from cortex (10 mg/kg i.p. (FIG. 1)) it was 400%; in the experiment with ACh release from cortex (30 mg/kg i.p. (FIG. 1)) it was 1500%; in experiment [1] (0.1 mg/kg i.p. (FIG. 2)), 10%; in experiment [1] (1 mg/kg i.p. (FIG. 2)), 30%; in experiment [1] (3 mg/kg i.p. (FIG. 2)), 125%. Moreover, the “Peak ACh release as % increase over Baseline” value in experiment [1] (10 mg/kg i.p. (FIG. 2)) is listed as 150%; in experiment [1] (30 mg/kg i.p. (FIG. 2)) it was 270%; in experiment [1] (Compound 169 1 mg/kg i.p. (FIG. 4)), 40 (FIG. 4) %. The “increase in ACh release” value in experiment [1] (oral administration, brain region not stated) was “significant increase”.

Source of the values: patent publication US6498168B2, “Muscarinic antagonists” (Schering Corporation, priority 1995, dated 2002).
